# According to patent US20030166601A1, “Novel colloid synthetic vectors for gene therapy” (priority 1999, published 2003):
# How the values were obtained:
# cultured cells = assay: Transfection of cultured cells, luciferase activity; format: cell-based
# Excerpt: The gene delivery ability of substituted aminoethanols with long chain hydrocarbon (aliphatic) substitutients was studied by transfection of cultured cells and then in vivo by intravenous injection (Table 2 and 3). The substituted aminoethanols have two hydrophilic polar heads connected with one hydrophobic body, which was named bihead lipids. Bihead lipids are proposed to form a monolayer membrane.
# CD-1 mice = assay: Luciferase expression in organs after intravenous injection of pCILuc complexes; format: in vivo; settings: for Luciferase RLU/20 ul lysate heart / Luciferase RLU/20 ul lysate kidney / Luciferase RLU/20 ul lysate liver / Luciferase RLU/20 ul lysate lung / Luciferase RLU/20 ul lysate spleen / Luciferase RLU/20 μl lysate heart / Luciferase RLU/20 μl lysate kidney / Luciferase RLU/20 μl lysate liver / Luciferase RLU/20 μl lysate lung / Luciferase RLU/20 μl lysate spleen: 40 μg pCILuc i.v., 5 h
# Procedure: Substituted aminoethanols (cationic compounds) were prepared as described in Examples 1-34. Their gene delivery ability was studied in vivo by intravenous injection (Table 1 and 2) using a standard method. The preparations were administered via tail vein injection to mice and gene expression determined after 5 hours. Female CD-1 mice, 13-15 g, were purchased from Charles River Inc. Forty microgram of pCILuc complexed with GC lipids or GC lipid:Chol dispersion as indicated weight ratios. After 5 h, mice were sacrificed and organs were collected. Organs were homogenized in 0.5 ml of lysis buffer and 20 μl of supernatant was used for luciferase assay. Luciferase activity was represented as a mean of relative light unit (RLU) of four mice. The lipids were either used alone or combined with cholesterol and complexed with a luciferase reporter gene plasmid by a standard procedure at a range of weight and charge ratios. For the in vivo screen, 40 μg of pCILuc was complexed with the formulation and injected into the mice.
# All compounds were evaluated for in vivo activity. Two critical factors were examined, formulation with or without cholesterol and the ratio of cationic lipid to DNA. Cholesterol was tested at 1:1 mole ratio of lipid:chol. The studies were performed with a dose of 40 μg of pCILuc complexed with cationic lipid or lipid: Chol (1:1 mole ratio) injected i.v. into CD-1 mice and then luciferase activity in different organs determined 5 h later. The first evaluation included all of 14 GC-lipids at weight ratios of 2 and 10 (GC lipid to DNA). It was performed by four separated experiments. Each time cationic liposome DOTAP:Chol was used as a standard control.
# Measurements were repeated with lipids GC-030, GC-034 and GC-029 at wider weight ratios than the first experiment. Luciferase activity is represented as a mean of relative light unit (RLU) of four mice. WR means weight ratio of GC lipids to DNA. The transfection activity was represented by luciferase activity RLU/organ. […] The transfection activity increased with the increased weight ratio (GC lipids to DNA). Inclusion of cholesterol can change the biodistribution of gene expression in the different organs examined. […] However this function of cholesterol was not seen with GC-034.
smiles,measurement,setting,value
CCCCCCCCCCCCCCC(O)CN(CCCN)CCCCCCCCCCCCCN(CCCN)CC(O)CCCCCCCCCCCCCC (stereo not drawn) [CGP44015A],Luciferase activity Ave. RLU × 10000/well FBS(+),cultured cells; charge ratio (+/−) 0.5,130 RLU × 10000/well
same,Luciferase activity Ave. RLU × 10000/well FBS(−),cultured cells; charge ratio (+/−) 0.5,159 RLU × 10000/well
same,Luciferase activity Ave. RLU × 10000/well FBS(+),cultured cells; charge ratio (+/−) 1,"3,373 RLU × 10000/well"
same,Luciferase activity Ave. RLU × 10000/well FBS(−),cultured cells; charge ratio (+/−) 1,"3,252 RLU × 10000/well"
same,Luciferase activity Ave. RLU × 10000/well FBS(+),cultured cells; charge ratio (+/−) 2,"17,315 RLU × 10000/well"
same,Luciferase activity Ave. RLU × 10000/well FBS(−),cultured cells; charge ratio (+/−) 2,"17,063 RLU × 10000/well"
same,Luciferase activity Ave. RLU × 10000/well FBS(+),cultured cells; charge ratio (+/−) 4,"25,732 RLU × 10000/well"
same,Luciferase activity Ave. RLU × 10000/well FBS(−),cultured cells; charge ratio (+/−) 4,"24,484 RLU × 10000/well"
same,Luciferase activity Ave. RLU × 10000/well FBS(+),cultured cells; charge ratio (+/−) 6,"27,844 RLU × 10000/well"
same,Luciferase activity Ave. RLU × 10000/well FBS(−),cultured cells; charge ratio (+/−) 6,"24,089 RLU × 10000/well"
same,Luciferase activity Ave. RLU × 10000/well FBS(+),cultured cells; charge ratio (+/−) 8,"27,298 RLU × 10000/well"
same,Luciferase activity Ave. RLU × 10000/well FBS(−),cultured cells; charge ratio (+/−) 8,"24,150 RLU × 10000/well"
same,Luciferase RLU/20 ul lysate heart,CD-1 mice; CR 0.5,74 RLU/20 ul lysate
same,Luciferase RLU/20 ul lysate kidney,CD-1 mice; CR 0.5,72 RLU/20 ul lysate
same,Luciferase RLU/20 ul lysate liver,CD-1 mice; CR 0.5,86 RLU/20 ul lysate
same,Luciferase RLU/20 ul lysate lung,CD-1 mice; CR 0.5,82 RLU/20 ul lysate
same,Luciferase RLU/20 ul lysate spleen,CD-1 mice; CR 0.5,80 RLU/20 ul lysate
same,Luciferase RLU/20 ul lysate heart,CD-1 mice; CR 1,73 RLU/20 ul lysate
same,Luciferase RLU/20 ul lysate kidney,CD-1 mice; CR 1,71 RLU/20 ul lysate
same,Luciferase RLU/20 ul lysate liver,CD-1 mice; CR 1,219 RLU/20 ul lysate
same,Luciferase RLU/20 ul lysate lung,CD-1 mice; CR 1,95 RLU/20 ul lysate
same,Luciferase RLU/20 ul lysate spleen,CD-1 mice; CR 1,168 RLU/20 ul lysate
same,Luciferase RLU/20 ul lysate heart,CD-1 mice; CR 4,379 RLU/20 ul lysate
same,Luciferase RLU/20 ul lysate kidney,CD-1 mice; CR 4,528 RLU/20 ul lysate
same,Luciferase RLU/20 ul lysate liver,CD-1 mice; CR 4,"3,817 RLU/20 ul lysate"
same,Luciferase RLU/20 ul lysate lung,CD-1 mice; CR 4,"19,717 RLU/20 ul lysate"
same,Luciferase RLU/20 ul lysate spleen,CD-1 mice; CR 4,"4,778 RLU/20 ul lysate"
same,Luciferase RLU/20 ul lysate heart,CD-1 mice; CR 10,103 RLU/20 ul lysate
same,Luciferase RLU/20 ul lysate kidney,CD-1 mice; CR 10,281 RLU/20 ul lysate
same,Luciferase RLU/20 ul lysate liver,CD-1 mice; CR 10,"1,283 RLU/20 ul lysate"
same,Luciferase RLU/20 ul lysate lung,CD-1 mice; CR 10,"4,470 RLU/20 ul lysate"
same,Luciferase RLU/20 ul lysate spleen,CD-1 mice; CR 10,"4,108 RLU/20 ul lysate"
same,Luciferase RLU/20 ul lysate heart,CD-1 mice; CR 20,75 RLU/20 ul lysate
same,Luciferase RLU/20 ul lysate kidney,CD-1 mice; CR 20,70 RLU/20 ul lysate
same,Luciferase RLU/20 ul lysate liver,CD-1 mice; CR 20,243 RLU/20 ul lysate
same,Luciferase RLU/20 ul lysate lung,CD-1 mice; CR 20,84 RLU/20 ul lysate
same,Luciferase RLU/20 ul lysate spleen,CD-1 mice; CR 20,69 RLU/20 ul lysate
same,expression in vivo by core complexes,"CD-1 mice; mouse, in vivo",exhibit expression in vivo
CCCCCCCCCCCCCCC(O)CN(CCN)CCCCCCCCNCCCN (stereo not drawn) [CGP44207A],Luciferase activity Ave. RLU × 10000/well FBS(+),cultured cells; charge ratio (+/−) 0.5,12 RLU × 10000/well
same,Luciferase activity Ave. RLU × 10000/well FBS(−),cultured cells; charge ratio (+/−) 0.5,12 RLU × 10000/well
same,Luciferase activity Ave. RLU × 10000/well FBS(+),cultured cells; charge ratio (+/−) 1,9 RLU × 10000/well
same,Luciferase activity Ave. RLU × 10000/well FBS(−),cultured cells; charge ratio (+/−) 1,11 RLU × 10000/well
same,Luciferase activity Ave. RLU × 10000/well FBS(+),cultured cells; charge ratio (+/−) 2,12 RLU × 10000/well
same,Luciferase activity Ave. RLU × 10000/well FBS(−),cultured cells; charge ratio (+/−) 2,15 RLU × 10000/well
same,Luciferase activity Ave. RLU × 10000/well FBS(+),cultured cells; charge ratio (+/−) 4,22 RLU × 10000/well
same,Luciferase activity Ave. RLU × 10000/well FBS(−),cultured cells; charge ratio (+/−) 4,28 RLU × 10000/well
same,Luciferase activity Ave. RLU × 10000/well FBS(+),cultured cells; charge ratio (+/−) 6,15 RLU × 10000/well
same,Luciferase activity Ave. RLU × 10000/well FBS(−),cultured cells; charge ratio (+/−) 6,22 RLU × 10000/well
same,Luciferase activity Ave. RLU × 10000/well FBS(+),cultured cells; charge ratio (+/−) 8,13 RLU × 10000/well
same,Luciferase activity Ave. RLU × 10000/well FBS(−),cultured cells; charge ratio (+/−) 8,17 RLU × 10000/well
CCCCCCCCCCCCCCCCCCN(CCCCCCCCCCCCCCCCCC)C(=O)CNC(=O)[C@@H](N)CCCN.O=C(O)C(F)(F)F.O=C(O)C(F)(F)F [GC-035],Luciferase RLU/20 μl lysate heart,CD-1 mice; WR 2,54 RLU/20 μl lysate
same,Luciferase RLU/20 μl lysate kidney,CD-1 mice; WR 2,46 RLU/20 μl lysate
same,Luciferase RLU/20 μl lysate liver,CD-1 mice; WR 2,57 RLU/20 μl lysate
same,Luciferase RLU/20 μl lysate lung,CD-1 mice; WR 2,57 RLU/20 μl lysate
same,Luciferase RLU/20 μl lysate heart,CD-1 mice; WR 10,51 RLU/20 μl lysate
same,Luciferase RLU/20 μl lysate kidney,CD-1 mice; WR 10,54 RLU/20 μl lysate
same,Luciferase RLU/20 μl lysate liver,CD-1 mice; WR 10,50 RLU/20 μl lysate
same,Luciferase RLU/20 μl lysate lung,CD-1 mice; WR 10,54 RLU/20 μl lysate
same,Luciferase RLU/20 μl lysate spleen,CD-1 mice; WR 10,54 RLU/20 μl lysate
same,Luciferase RLU/20 μl lysate spleen,CD-1 mice; WR (lipid to DNA) 2,70 RLU/20 μl lysate
CCCCCCCCCCCCCCCCCC(CCCCCCCCCCCCCCCCC)NC(=O)CNC(=O)CNC(=O)[C@H](CCCNCCCN)NCCCN.O=C(O)C(F)(F)F.O=C(O)C(F)(F)F.O=C(O)C(F)(F)F.O=C(O)C(F)(F)F [GC-038],Luciferase RLU/20 μl lysate heart,CD-1 mice; WR 2,101 RLU/20 μl lysate
same,Luciferase RLU/20 μl lysate kidney,CD-1 mice; WR 2,60 RLU/20 μl lysate
same,Luciferase RLU/20 μl lysate liver,CD-1 mice; WR 2,59 RLU/20 μl lysate
same,Luciferase RLU/20 μl lysate lung,CD-1 mice; WR 2,142 RLU/20 μl lysate
same,Luciferase RLU/20 μl lysate heart,CD-1 mice; WR 10,57 RLU/20 μl lysate
same,Luciferase RLU/20 μl lysate kidney,CD-1 mice; WR 10,58 RLU/20 μl lysate
same,Luciferase RLU/20 μl lysate liver,CD-1 mice; WR 10,93 RLU/20 μl lysate
same,Luciferase RLU/20 μl lysate lung,CD-1 mice; WR 10,63 RLU/20 μl lysate
same,Luciferase RLU/20 μl lysate spleen,CD-1 mice; WR 10,160 RLU/20 μl lysate
same,Luciferase RLU/20 μl lysate spleen,CD-1 mice; WR (lipid to DNA) 2,61 RLU/20 μl lysate
CCCCCCCCCCCCCCCCCC(CCCCCCCCCCCCCCCCC)NC(=O)CNC(=O)CNC(=O)[C@@H](N)CCCN.O=C(O)C(F)(F)F.O=C(O)C(F)(F)F [GC-039],Luciferase RLU/20 μl lysate heart,CD-1 mice; WR 2,50 RLU/20 μl lysate
same,Luciferase RLU/20 μl lysate kidney,CD-1 mice; WR 2,45 RLU/20 μl lysate
same,Luciferase RLU/20 μl lysate liver,CD-1 mice; WR 2,48 RLU/20 μl lysate
same,Luciferase RLU/20 μl lysate lung,CD-1 mice; WR 2,52 RLU/20 μl lysate
same,Luciferase RLU/20 μl lysate heart,CD-1 mice; WR 10,45 RLU/20 μl lysate
same,Luciferase RLU/20 μl lysate kidney,CD-1 mice; WR 10,54 RLU/20 μl lysate
same,Luciferase RLU/20 μl lysate liver,CD-1 mice; WR 10,212 RLU/20 μl lysate
same,Luciferase RLU/20 μl lysate lung,CD-1 mice; WR 10,753 RLU/20 μl lysate
same,Luciferase RLU/20 μl lysate spleen,CD-1 mice; WR 10,845 RLU/20 μl lysate
same,Luciferase RLU/20 μl lysate spleen,CD-1 mice; WR (lipid to DNA) 2,288 RLU/20 μl lysate
CCCCCCCCCCCCCCCCCCN(CCCCCCCCCCCCCCCCCC)C(=O)[C@H](CCC(=O)NCCN(CCNC(=O)CC[C@H](NC(=O)[C@H](CCCNCCCN)NCCCN)C(=O)N(CCCCCCCCCCCCCCCCCC)CCCCCCCCCCCCCCCCCC)CCNC(=O)CC[C@H](NC(=O)[C@H](CCCNCCCN)NCCCN)C(=O)N(CCCCCCCCCCCCCCCCCC)CCCCCCCCCCCCCCCCCC)NC(=O)[C@H](CCCNCCCN)NCCCN.O=C(O)C(F)(F)F.O=C(O)C(F)(F)F.O=C(O)C(F)(F)F.O=C(O)C(F)(F)F.O=C(O)C(F)(F)F.O=C(O)C(F)(F)F.O=C(O)C(F)(F)F.O=C(O)C(F)(F)F.O=C(O)C(F)(F)F.O=C(O)C(F)(F)F.O=C(O)C(F)(F)F.O=C(O)C(F)(F)F.O=C(O)C(F)(F)F [GC-071],Luciferase RLU/20 μl lysate heart,CD-1 mice; WR 2,60 RLU/20 μl lysate
same,Luciferase RLU/20 μl lysate kidney,CD-1 mice; WR 2,58 RLU/20 μl lysate
same,Luciferase RLU/20 μl lysate liver,CD-1 mice; WR 2,59 RLU/20 μl lysate
same,Luciferase RLU/20 μl lysate lung,CD-1 mice; WR 2,56 RLU/20 μl lysate
same,Luciferase RLU/20 μl lysate heart,CD-1 mice; WR 10,61 RLU/20 μl lysate
same,Luciferase RLU/20 μl lysate kidney,CD-1 mice; WR 10,67 RLU/20 μl lysate
same,Luciferase RLU/20 μl lysate liver,CD-1 mice; WR 10,531 RLU/20 μl lysate
same,Luciferase RLU/20 μl lysate lung,CD-1 mice; WR 10,73 RLU/20 μl lysate
same,Luciferase RLU/20 μl lysate spleen,CD-1 mice; WR 10,286 RLU/20 μl lysate
same,Luciferase RLU/20 μl lysate spleen,CD-1 mice; WR (lipid to DNA) 2,61 RLU/20 μl lysate
